Reference: the supplement of paper PMC10331698
± gives the standard deviation of the averaged measurements.

Key:
Test in all cases: level (log10 ratio to DMSO vehicle control); higher = higher biomarker level / cell amount than vehicle control
Conditions in all cases: in DMSO
[1] = compound: O=S(=O)(O)C(F)(F)C(F)(F)C(F)(F)C(F)(F)C(F)(F)C(F)(F)C(F)(F)C(F)(F)F [Perfluorooctanesulfonic acid]
Description: (§1)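 BioMAP Diversity Plus panel of 12 human primary cell co-culture systems (3C, 4H, LPS, SAg, BT, BF4T, BE3C, CASM3C, HDF3CGF, KF3CT, MyoF, Mphg). Compounds were added 1 h before stimulation and left for 24 h (MyoF 48 h; BT 72 h for soluble read-outs or 6 d for IgG). Biomarkers were read by ELISA, cytotoxicity by SRB, PBMC viability and proliferation by Alamar Blue. Each well value was divided by the mean of 8 DMSO control wells on the same plate and log10 transformed; duplicate blinded samples were tested at 4 concentrations.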

Azathioprine = compound: Cn1cnc([N+](=O)[O-])c1Sc1ncnc2[nH]cnc12 [Azathioprine]
Description: as §1

[2] = compound: O=C(O)CCC(F)(F)C(F)(F)C(F)(F)F [3:3 Fluorotelomer carboxylic acid]
Description: as §1

[3] = compound: O=C(O)C(F)(F)C(F)(F)C(F)(F)C(F)(F)C(F)(F)C(F)(F)C(F)(F)C(F)(F)Cl [9-Chloro-perfluorononanoic acid]
Description: as §1

[4] = compound: CC(C)(C)C(=O)CC(=O)C(F)(F)C(F)(F)C(F)(F)F [(Heptafluorobutanoyl)pivaloylmethane]
Description: as §1

[5] = compound: O=P(O)(O)CCC(F)(F)C(F)(F)C(F)(F)C(F)(F)C(F)(F)C(F)(F)C(F)(F)C(F)(F)F [((Perfluorooctyl)ethyl)phosphonic acid]
Description: as §1

Test System | level (log10) ([1]; 6700 nM) | level (log10) ([1]; 20000 nM) | level (log10) ([1]; 60000 nM) | level (log10) (Azathioprine; 1400 nM) | level (log10) (Azathioprine; 4200 nM) | level (log10) (Azathioprine; 13000 nM) | level (log10) (Azathioprine; 38000 nM) | level (log10) ([2]; 6700 nM) | level (log10) ([2]; 20000 nM) | level (log10) ([2]; 60000 nM) | level (log10) ([3]; 6700 nM) | level (log10) ([3]; 20000 nM) | level (log10) ([4]; 6700 nM) | level (log10) ([4]; 20000 nM) | level (log10) ([4]; 60000 nM) | level (log10) ([5]; 6700 nM) | level (log10) ([5]; 20000 nM) | level (log10) ([5]; 60000 nM)
BF4T:MMP-9 | 0.02 ± 0.0028 | 0.033 ± 0.0099 | 0.019 ± 0.095 | 0.0365 ± 0.087 | -0.001 ± 0.04 | 0.004 ± 0.021 | 0.0215 ± 0.023 | 0.0165 ± 0.07 | 0.002 ± 0.065 | 0.0285 ± 0.046 | -0.0395 ± 0.036 | -0.0715 ± 0.019 | -0.009 ± 0.042 | 0.0205 ± 0.029 | 0.033 ± 0.0014 | -0.014 ± 0.0014 | -0.014 ± 0.011 | 0.0305 ± 0.021
BF4T:PAI-I | -0.002 ± 0.0085 | -0.0135 ± 0.0021 | -0.02 ± 0.052 | 0.004 ± 0.017 | -0.001 ± 0.0099 | -0.009 ± 0.0014 | -0.005 ± 0.013 | 0.0025 ± 0.021 | -0.011 ± 0.018 | 0.006 ± 0.0014 | -0.027 ± 0.0042 | -0.052 ± 0.0028 | -0.0045 ± 0.0021 | 0.001 ± 0.0028 | 0.0085 ± 0.012 | 0.003 ± 0.0042 | 0.0055 ± 0.011 | 0.016 ± 0.021
BF4T:SRB | -0.0095 ± 0.0092 | -0.0115 ± 0.0021 | -0.0015 ± 0.026 | 0.016 ± 0.014 | -0.0045 ± 0.0092 | -0.0025 ± 0.0021 | -0.005 ± 0.0028 | -0.008 ± 0.0057 | -0.0105 ± 0.0035 | 0 ± 0.0014 | -0.013 ± 0.0071 | -0.0555 ± 0.0064 | -0.006 ± 0.0085 | 0.0075 ± 0.0021 | 0.0055 ± 0.023 | -0.008 ± 0.0028 | -0.009 ± 0.0014 | -0.0045 ± 0.0078
BF4T:tPA | 0.0135 ± 0.013 | -0.0175 ± 0.00071 | 0.0195 ± 0.018 | 0.005 ± 0.048 | -0.034 ± 0.011 | -0.071 ± 0.023 | -0.0935 ± 0.053 | 0.004 ± 0.031 | -0.0005 ± 0.015 | 0.015 ± 0.0099 | -0.075 ± 0.0099 | -0.098 ± 0.0099 | -0.024 ± 0.027 | -0.033 ± 0.0057 | -0.0225 ± 0.026 | 0.0055 ± 0.013 | 0.0645 ± 0.005 | 0.072 ± 0.054
BF4T:uPA | 0.0005 ± 0.016 | 0.0175 ± 0.00071 | 0.0375 ± 0.023 | 0 ± 0.0099 | -0.008 ± 0.0042 | -0.033 ± 0.0028 | -0.026 ± 0.0099 | 0.0025 ± 0.016 | 0 ± 0.011 | -0.01 ± 0.031 | -0.0045 ± 0.012 | -0.01 ± 0.0071 | -0.006 ± 0.011 | -0.0085 ± 0.005 | -0.025 ± 0.0014 | 0.008 ± 0.0085 | 0.0185 ± 0.018 | 0.0205 ± 0.057
BT:B cell Proliferation | 0.0245 ± 0.0092 | 0.0375 ± 0.0092 | 0.0635 ± 0.035 | -0.0315 ± 0.0064 | -0.0305 ± 0.0092 | -0.0555 ± 0.005 | -0.123 ± 0.026 | -0.018 ± 0.0085 | -0.0115 ± 0.042 | -0.011 ± 0.02 | 0.04 ± 0.038 | 0.037 ± 0.017 | 0.007 ± 0.0099 | 0.007 ± 0.028 | 0.033 ± 0.0057 | 0.014 ± 0.021 | -0.0325 ± 0.044 | -0.136 ± 0.058
BT:PBMC Cytotoxicity | 0.0295 ± 0.0064 | 0.038 ± 0.016 | 0.078 ± 0.047 | 0.002 ± 0.023 | 0.002 ± 0.018 | -0.054 ± 0.017 | -0.085 ± 0.04 | 0.0035 ± 0.0064 | 0.012 ± 0.017 | 0.018 ± 0.014 | 0.015 ± 0.028 | 0.0355 ± 0.015 | 0.0255 ± 0.0035 | -0.019 ± 0.011 | 0.0105 ± 0.042 | 0.0055 ± 0.00071 | 0 ± 0.0057 | 0.0095 ± 0.015
